Test results published in ChEMBL document CHEMBL5724914, “Linking interpersonal differences in gut microbiota composition and drug biotransformation activity” (2024).

Details: human gut metagenome, 24 h, 2 µM
Also: call rule not given here.

SMILES	Bacterial Biotransformation
CC(C)N(CCC(C(N)=O)(c1ccccc1)c1ccccn1)C(C)C.O=P(O)(O)O (stereo not given) [DISOPYRAMIDE PHOSPHATE]	Compound metabolized
CNC(=C[N+](=O)[O-])NCCSCc1ccc(CN(C)C)o1 [RANITIDINE]	Compound NOT metabolized

Experiment: (§1) The drug is tested on WLS-039 corresponding to human gut metagenome with ENA study accession number: PRJEB37062 and ENA sample accession number: ERS12561746 for biotransformation under anaerobic condition. The drug concentrations were measured over 9 timepoints collected between 0 and 24 hours of incubation by liquid-chromatography-coupled mass spectrometry (LC–MS)
Details: 2 µM

SMILES	Bacterial Biotransformation
CC(C)N(CCC(C(N)=O)(c1ccccc1)c1ccccn1)C(C)C.O=P(O)(O)O (stereo not given) [DISOPYRAMIDE PHOSPHATE]	Compound NOT metabolized
CNC(=C[N+](=O)[O-])NCCSCc1ccc(CN(C)C)o1 [RANITIDINE]	Compound NOT metabolized

Details: human gut metagenome, 24 h, 2 µM
Remark: another data set of the same source

SMILES	Bacterial Biotransformation
CC(C)N(CCC(C(N)=O)(c1ccccc1)c1ccccn1)C(C)C.O=P(O)(O)O (stereo not given) [DISOPYRAMIDE PHOSPHATE]	Compound NOT metabolized
CNC(=C[N+](=O)[O-])NCCSCc1ccc(CN(C)C)o1 [RANITIDINE]	Compound metabolized

Experiment: as §1, with “WLS-052” for “WLS-039”, “ERS12561747” for “ERS12561746”
Details: 2 µM

SMILES	Bacterial Biotransformation
CC(C)N(CCC(C(N)=O)(c1ccccc1)c1ccccn1)C(C)C.O=P(O)(O)O (stereo not given) [DISOPYRAMIDE PHOSPHATE]	Compound NOT metabolized
CNC(=C[N+](=O)[O-])NCCSCc1ccc(CN(C)C)o1 [RANITIDINE]	Compound NOT metabolized

Details: human gut metagenome, 24 h, 2 µM
Remark: another data set of the same source

SMILES	Bacterial Biotransformation
CC(C)N(CCC(C(N)=O)(c1ccccc1)c1ccccn1)C(C)C.O=P(O)(O)O (stereo not given) [DISOPYRAMIDE PHOSPHATE]	Compound NOT metabolized
CNC(=C[N+](=O)[O-])NCCSCc1ccc(CN(C)C)o1 [RANITIDINE]	Compound NOT metabolized

Details: human gut metagenome, 24 h, 2 µM
Remark: another data set of the same source

SMILES	Bacterial Biotransformation
CC(C)N(CCC(C(N)=O)(c1ccccc1)c1ccccn1)C(C)C.O=P(O)(O)O (stereo not given) [DISOPYRAMIDE PHOSPHATE]	Compound NOT metabolized
CNC(=C[N+](=O)[O-])NCCSCc1ccc(CN(C)C)o1 [RANITIDINE]	Compound NOT metabolized

Experiment: as §1, with “WLS-098” for “WLS-039”, “ERS12561754” for “ERS12561746”
Details: 2 µM

SMILES	Bacterial Biotransformation
CC(C)N(CCC(C(N)=O)(c1ccccc1)c1ccccn1)C(C)C.O=P(O)(O)O (stereo not given) [DISOPYRAMIDE PHOSPHATE]	Compound metabolized
CNC(=C[N+](=O)[O-])NCCSCc1ccc(CN(C)C)o1 [RANITIDINE]	Compound NOT metabolized

Experiment: as §1, with “WLS-027” for “WLS-039”, “ERS12561744” for “ERS12561746”
Details: 2 µM

SMILES	Bacterial Biotransformation
CC(C)N(CCC(C(N)=O)(c1ccccc1)c1ccccn1)C(C)C.O=P(O)(O)O (stereo not given) [DISOPYRAMIDE PHOSPHATE]	Compound NOT metabolized
CNC(=C[N+](=O)[O-])NCCSCc1ccc(CN(C)C)o1 [RANITIDINE]	Compound NOT metabolized

Details: human gut metagenome, 24 h, 2 µM
Remark: another data set of the same source

SMILES	Bacterial Biotransformation
CC(C)N(CCC(C(N)=O)(c1ccccc1)c1ccccn1)C(C)C.O=P(O)(O)O (stereo not given) [DISOPYRAMIDE PHOSPHATE]	Compound NOT metabolized
CNC(=C[N+](=O)[O-])NCCSCc1ccc(CN(C)C)o1 [RANITIDINE]	Compound NOT metabolized

Details: human gut metagenome, 24 h, 2 µM
Remark: another data set of the same source

SMILES	Bacterial Biotransformation
CC(C)N(CCC(C(N)=O)(c1ccccc1)c1ccccn1)C(C)C.O=P(O)(O)O (stereo not given) [DISOPYRAMIDE PHOSPHATE]	Compound NOT metabolized
CNC(=C[N+](=O)[O-])NCCSCc1ccc(CN(C)C)o1 [RANITIDINE]	Compound NOT metabolized

Details: human gut metagenome, 24 h, 2 µM
Remark: another data set of the same source

SMILES	Bacterial Biotransformation
CC(C)N(CCC(C(N)=O)(c1ccccc1)c1ccccn1)C(C)C.O=P(O)(O)O (stereo not given) [DISOPYRAMIDE PHOSPHATE]	Compound NOT metabolized
CNC(=C[N+](=O)[O-])NCCSCc1ccc(CN(C)C)o1 [RANITIDINE]	Compound NOT metabolized

Experiment: as §1, with “Z-021” for “WLS-039”, “to” for “to human gut”, “ERS12561820” for “ERS12561746”
Details: 2 µM

SMILES	Bacterial Biotransformation
CC(C)N(CCC(C(N)=O)(c1ccccc1)c1ccccn1)C(C)C.O=P(O)(O)O (stereo not given) [DISOPYRAMIDE PHOSPHATE]	Compound NOT metabolized
CNC(=C[N+](=O)[O-])NCCSCc1ccc(CN(C)C)o1 [RANITIDINE]	Compound NOT metabolized

Experiment: as §1, with “Z-023” for “WLS-039”, “to” for “to human gut”, “ERS12561822” for “ERS12561746”
Details: 2 µM

SMILES	Bacterial Biotransformation
CC(C)N(CCC(C(N)=O)(c1ccccc1)c1ccccn1)C(C)C.O=P(O)(O)O (stereo not given) [DISOPYRAMIDE PHOSPHATE]	Compound NOT metabolized
CNC(=C[N+](=O)[O-])NCCSCc1ccc(CN(C)C)o1 [RANITIDINE]	Compound metabolized

Experiment: as §1, with “Z-011” for “WLS-039”, “mouse” for “human”, “ERS12561811” for “ERS12561746”
Details: 2 µM

SMILES	Bacterial Biotransformation
CC(C)N(CCC(C(N)=O)(c1ccccc1)c1ccccn1)C(C)C.O=P(O)(O)O (stereo not given) [DISOPYRAMIDE PHOSPHATE]	Compound NOT metabolized
CNC(=C[N+](=O)[O-])NCCSCc1ccc(CN(C)C)o1 [RANITIDINE]	Compound metabolized

Experiment: as §1, with “WLS-010” for “WLS-039”, “ERS12561743” for “ERS12561746”
Details: 2 µM

SMILES	Bacterial Biotransformation
CC(C)N(CCC(C(N)=O)(c1ccccc1)c1ccccn1)C(C)C.O=P(O)(O)O (stereo not given) [DISOPYRAMIDE PHOSPHATE]	Compound NOT metabolized
CNC(=C[N+](=O)[O-])NCCSCc1ccc(CN(C)C)o1 [RANITIDINE]	Compound NOT metabolized

Experiment: as §1, with “Z-006” for “WLS-039”, “mouse” for “human”, “ERS12561806” for “ERS12561746”
Details: 2 µM

SMILES	Bacterial Biotransformation
CC(C)N(CCC(C(N)=O)(c1ccccc1)c1ccccn1)C(C)C.O=P(O)(O)O (stereo not given) [DISOPYRAMIDE PHOSPHATE]	Compound NOT metabolized
CNC(=C[N+](=O)[O-])NCCSCc1ccc(CN(C)C)o1 [RANITIDINE]	Compound metabolized

Experiment: as §1, with “Z-025” for “WLS-039”, “rabbit” for “human”, “ERS12561824” for “ERS12561746”
Details: 2 µM

SMILES	Bacterial Biotransformation
CC(C)N(CCC(C(N)=O)(c1ccccc1)c1ccccn1)C(C)C.O=P(O)(O)O (stereo not given) [DISOPYRAMIDE PHOSPHATE]	Compound NOT metabolized
CNC(=C[N+](=O)[O-])NCCSCc1ccc(CN(C)C)o1 [RANITIDINE]	Compound NOT metabolized

Details: human gut metagenome, 24 h, 2 µM
Remark: another data set of the same source

SMILES	Bacterial Biotransformation
CC(C)N(CCC(C(N)=O)(c1ccccc1)c1ccccn1)C(C)C.O=P(O)(O)O (stereo not given) [DISOPYRAMIDE PHOSPHATE]	Compound NOT metabolized
CNC(=C[N+](=O)[O-])NCCSCc1ccc(CN(C)C)o1 [RANITIDINE]	Compound metabolized

Details: human gut metagenome, 24 h, 2 µM
Remark: another data set of the same source

SMILES	Bacterial Biotransformation
CC(C)N(CCC(C(N)=O)(c1ccccc1)c1ccccn1)C(C)C.O=P(O)(O)O (stereo not given) [DISOPYRAMIDE PHOSPHATE]	Compound NOT metabolized
CNC(=C[N+](=O)[O-])NCCSCc1ccc(CN(C)C)o1 [RANITIDINE]	Compound NOT metabolized

Experiment: as §1, with “Z-022” for “WLS-039”, “mouse” for “human”, “ERS12561821” for “ERS12561746”
Details: 2 µM

SMILES	Bacterial Biotransformation
CC(C)N(CCC(C(N)=O)(c1ccccc1)c1ccccn1)C(C)C.O=P(O)(O)O (stereo not given) [DISOPYRAMIDE PHOSPHATE]	Compound NOT metabolized
CNC(=C[N+](=O)[O-])NCCSCc1ccc(CN(C)C)o1 [RANITIDINE]	Compound metabolized
